Patent US11980667B2, “Short TAT oligomers for drug delivery” (The Trustees of Columbia University in the City of New York, priority 2017, dated 2024)

Legend:
[1] = Physiological changes during IA-TCH and IV delivery; format: in vivo, rat
Excerpt: Comparison of […] and IV TAT delivery. Fisher 344 rats weighing about 200 g were utilized. During initial surgery under ketamine-xylazine isoflurane anesthesia 5×10^5 9 L cells were implanted 3 mm below the skull and 2-3 mm posterior and lateral to the bregma through a 1 mm craniotomy. […] The animals were assigned separately to IV and IA-TCH groups. On the day of drug delivery, animals were sedated with isoflurane and injected with ketamine/xylazine. The tail vein was cannulated for intravenous access. Under aseptic precautions, a tracheostomy and carotid cannulation were performed. Anesthesia was maintained by mechanical ventilation with isoflurane (1.8-2.2%). Thereafter animals were turned prone on a stereotactic frame. The skull was exposed and the region of tumor implantation was shaved to transparency. A laser Doppler probe was implanted on the skull with the aid of a plastic holder to assess cerebral/tumor blood flow. Rectal temperature, pulse pleth (volume), pulse oxygen saturation, EKG, expired and inspired gas composition, brain and skin blood flow with lase Doppler were continuously monitored.
Transient cerebral hypoperfusion and fluorescein-labeled TAT monomer injection. IA injections were made during TCH by the following method. Reduction of blood flow was achieved by bolus IV injections of adenosine (2 mg) and esmolol (2 mg), and cold saline (1.5 mL at 4° C.). Typically such an intervention decreases cerebral blood flow to about 20% of the baseline. The heart rate response varies from sinus bradycardia to a sinus pause. However, physiological parameters rapidly recover within 3-5 minutes. […] For each animal, a test IA injection was done prior to the onset of hypotension to ensure delivery of the desired injection volume and the injection sequence was resumed after bolus IV injections of hypotensive drugs.
Physiological parameters. Key parameters included inspired and expired gas composition, laser Doppler skin and brain/tumor blood flow, EKG for heart rate, pleth pulse, oxygen saturation, and rectal temperature which were continuously monitored. Data were analyzed at four time points: baseline, at the time of IA injection, 5 minutes after the start of injection, and at the end of the experiment. […] Immediately after sacrifice, brain tissue was harvested for imaging. All physiological data was recorded at 200 Hz by a Mac Lab data collection system.

[2] = test system: 9L glioma tumor; test: In vivo uptake of TAT dimer versus monomer by IA-TCH (MSI and confocal imaging); parameters: species or system rat; conditions: dimer 0.25 mg, monomer 0.125 mg, five rats each
Protocol: An additional experiment was performed to assess the in vivo uptake of fluorescein-labeled TAT dimer by IA-TCH. About 14 days after 9L glioma tumor implantation, rats were anesthetized and prepared for TAT dimer delivery experiments. TAT dimer was conjugated with fluorescein such that its concentrations in post mortem samples could be determined immediately by multispectral imaging and confocal imaging. TAT dimer (0.25 mg) and monomer (0.125 mg) were tested using IA-TCH delivery both containing equal amounts of fluorescein were evaluated. […] Animals were sacrificed 15 minutes after TAT injection. Brain tissue was harvested.

[3] = test system: 9L glioma; test: Quantitative tumor TAT-FITC uptake, electron multiplying charge-coupled device imaging; format: in vivo, rat
Excerpt: In addition to the standard fluorescence imaging described above, we assess tumor uptake of TAT-FITC using a higher resolution, quantitative tool utilizing an electron-multiplying charge coupled device. To accomplish this we used two warm white light LEDs to evenly illuminate the tissue samples through a narrow (10 nm) band pass filter with 470 nm central transmission (Thor Labs, New Jersey). An Evolve 520 high sensitivity electron multiplying charge-coupled device (Photometeric Inc. Tucson, AZ) was utilized while using a 520 nm narrow band pass filter. Each sample was normalized to the background and to the injected drug concentrations. Four 2 mm sections were interrogated for each specimen on either side of the plane of tumor implantation. The data was corrected for ambient light, tissue independent background fluorescence, and contralateral hemisphere tissue fluorescence.

[4] = test system: 9L glioma tumors; test: Single arrest study: IV versus IA-TCH (multi-spectral imaging and confocal microscopy); format: in vivo, rat
Protocol: Single Arrest Study. 9L glioma tumors were implanted into eight rats. […] Animals were sacrificed 15 minutes after injection. […] Brain tissues were also hematoxylin and eosin stained and imaged by confocal microscopy.

[5] = IV injection, confocal microscopy
[6] = IV injection, multi-spectral imaging

`N=C(N)NCCC[C@H](NC(=O)CNC(=O)c1ccc2c(c1)C(=O)OC21c2ccc(O)cc2Oc2cc(O)ccc21)C(=O)N[C@@H](CCCCN)C(=O)N[C@@H](CCCCN)C(=O)N[C@@H](CCCNC(=N)N)C(=O)N[C@@H](CCCNC(=N)N)C(=O)N[C@@H](CCC(N)=O)C(=O)N[C@@H](CCCNC(=N)N)C(=O)N[C@@H](CCCNC(=N)N)C(=O)N[C@@H](CCCNC(=N)N)C(=O)N1CCC[C@H]1C(=O)N1CCC[C@H]1C(=O)N[C@@H](CCC(N)=O)C(=O)N[C@@H](CCC(N)=O)C(=O)O` [fluorescein-labeled TAT monomer, 5-FAM-GRKKRRQRRR PPQQ-COOH] gave a CBF ([1]; IA-TCH, 5 min) of 90 ± 32 % Δbase, an ETCO2 ([1]; IA-TCH, 5 min) of 71 ± 17 % Δbase and an HR ([1]; IA-TCH, 5 min) of 273 ± 59 BMP. For the same compound, the Isoflurane ([1]; IA-TCH, 5 min) was 1.8 ± 0.8 ET %, the SaO2 ([1]; IA-TCH, 5 min) was 95% and the “Sk · BF” value ([1]; IA-TCH, 5 min) was 104 ± 38 % Δbase. It also gave a Temp ([1]; IA-TCH, 5 min) of 36.6 ± 1.1 °C, a CBF ([1]; IA-TCH, Base) of 100 ± 0 % Δbase and an ETCO2 ([1]; IA-TCH, Base) of 100 ± 0 % Δbase. The HR ([1]; IA-TCH, Base) was 289 ± 19 BMP, the Isoflurane ([1]; IA-TCH, Base) was 2.2 ± 0.2 ET % and the SaO2 ([1]; IA-TCH, Base) was 98 ± 2%. The “Sk · BF” value ([1]; IA-TCH, Base) was 100 ± 0 % Δbase, the Temp ([1]; IA-TCH, Base) was 37.1 ± 1.3 °C and the CBF ([1]; IA-TCH, End) was 81 ± 13 % Δbase. The ETCO2 ([1]; IA-TCH, End) was 92 ± 27 % Δbase, the HR ([1]; IA-TCH, End) was 310 ± 11 BMP and the Isoflurane ([1]; IA-TCH, End) was 2.2 ± 0.4 ET %. The “Sk · BF” value ([1]; IA-TCH, End) was 92 ± 16 % Δbase, the Temp ([1]; IA-TCH, End) was 36.9 ± 1.1 °C and the CBF ([1]; IA-TCH, Injection) was 29 ± 26 % Δbase. For the same compound, the ETCO2 ([1]; IA-TCH, Injection) was 54 ± 50 % Δbase, the HR ([1]; IA-TCH, Injection) was 63 ± 41 BMP and the Isoflurane ([1]; IA-TCH, Injection) was 0.8 ± 0.9 ET %. The SaO2 ([1]; IA-TCH, Injection) was 92 ± 11 %, the “Sk · BF” value ([1]; IA-TCH, Injection) was 18 ± 10 % Δbase and the Temp ([1]; IA-TCH, Injection) was 36.6 ± 1.3 °C. For the same compound, the CBF ([1]; IV, 5 min) was 73 ± 13b % Δbase, the ETCO2 ([1]; IV, 5 min) was 85 ± 37 % Δbase and the HR ([1]; IV, 5 min) was 267 ± 68 BMP. For the same compound, the Isoflurane ([1]; IV, 5 min) was 2.1 ± 0.2 ET %, the SaO2 ([1]; IV, 5 min) was 97 ± 4% and the “Sk · BF” value ([1]; IV, 5 min) was 106 ± 28 % Δbase. It also gave a Temp ([1]; IV, 5 min) of 36.1 ± 0.9 °C, a CBF ([1]; IV, Base) of 100 ± 0 % Δbase and an ETCO2 ([1]; IV, Base) of 100 ± 0 % Δbase. It also gave an HR ([1]; IV, Base) of 267 ± 17 BMP, an Isoflurane ([1]; IV, Base) of 2.2 ± 0.3 ET % and a SaO2 ([1]; IV, Base) of 100 ± 5%. For the same compound, the “Sk · BF” value ([1]; IV, Base) was 100 ± 0 % Δbase, the Temp ([1]; IV, Base) was 35.9 ± 0.9 °C and the CBF ([1]; IV, End) was 73 ± 12b % Δbase. For the same compound, the ETCO2 ([1]; IV, End) was 86 ± 14 % Δbase, the HR ([1]; IV, End) was 283 ± 10 BMP and the Isoflurane ([1]; IV, End) was 2.1 ± 0.3 ET %. For the same compound, the SaO2 ([1]; IV, End) was 99 ± 2%, the “Sk · BF” value ([1]; IV, End) was 116 ± 30 % Δbase and the Temp ([1]; IV, End) was 36.5 ± 1.0 °C. It also gave a CBF ([1]; IV, Injection) of 122 ± 21 % Δbase, an ETCO2 ([1]; IV, Injection) of 75 ± 39 % Δbase and an HR ([1]; IV, Injection) of 274 ± 31 BMP. For the same compound, the Isoflurane ([1]; IV, Injection) was 0.4 ± 0.1 ET %, the SaO2 ([1]; IV, Injection) was 97 ± 4% and the “Sk · BF” value ([1]; IV, Injection) was 144 ± 50a,# % Δbase. For the same compound, the Temp ([1]; IV, Injection) was 35.9 ± 0.9 °C, the Tumor selective delivery [2] was “able to achieve tumor selective drug delivery” and the “Tumor TAT deposition compared to the corresponding contralateral region” value ([3]; IA-TCH, N=8) was 11.7 fold. The “Fluorescence in the tumor compared to the ipsilateral non-tumor regions” value ([3]; six animals, FIG. 19E) was 7.4 ×, the “Fluorescence in the tumor compared to the tumor site on the contralateral hemisphere” value ([3]; six animals, FIG. 19E) was 10.5 × and the Tumor selectivity ([4]; IA-TCH) was 5-6 ×. For the same compound, the “Fluorescence in the tumor versus the contralateral hemisphere” value ([4]; IA-TCH, confocal microscopy) was 10.78 ×, the “Fluorescence in the tumor versus the ipsilateral brain tissue” value ([4]; IA-TCH, confocal microscopy) was 5.07 × and the “Fluorescence in the tumor versus the contralateral hemisphere” value ([4]; IA-TCH, multi-spectral imaging) was 9.90 ×. The “Fluorescence in the tumor versus the ipsilateral brain tissue” value ([4]; IA-TCH, multi-spectral imaging) was 5.93 ×, the “Fluorescence in the tumor versus the contralateral hemisphere” value [4, 5] was 2.61 × and the “Fluorescence in the tumor versus the ipsilateral brain tissue” value [4, 5] was 2.43 ×. For the same compound, the “Fluorescence in the tumor versus the contralateral hemisphere” value [4, 6] was 2.72 ×, the “Fluorescence in the tumor versus the ipsilateral brain tissue” value [4, 6] was 2.59 × and the Tumor selectivity ([4]; IV injections) was 2 ×. The “Tumor concentration, IA-TCH relative to IV” value ([4]; rat, in vivo, iv) was “about four-fold greater”.
